The source made the active and inactive calls.
What was measured:
[1] = reduction of Shn3 3'UTR-driven luciferase in osteoblasts – cell-based, Clone20 osteoblasts, firefly luciferase, cherry-picked, dose response (AID 624132); format: functional;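 also: firefly luciferase luminescence from reporter carrying the Shn3 3'UTR in osteoblasts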
Vero = experiment: mammalian cell viability reduction – secondary assay, cytotoxicity control for West Nile virus antiviral project, dose response (AID 1650); format: functional; settings: Chlorocebus sabaeus
[2] = non-specific 3'UTR reporter inhibition in Clone20-Shn3RL – cell-based, Renilla luciferase, cherry-picked, counter-screen for Shn3 inhibitor project, dose response (AID 624133); format: functional
HEK293 = experiment: EBV LMP1 TES2 canonical NF-kB signalling blockers – cell-based, HEK293, luciferase, cherry-pick, dose response (AID 588343); format: functional; settings: Homo sapiens
[3] = HEK-293T viability loss after treatment – luminescence, T-cell screen hits, cytotoxicity control for TCR NF-kB inhibitor project, dose response (AID 489026); format: functional, cell-based;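 also: cells exposed to compound about 14 hours before the viability readout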
[4] = viability inhibitors of stage V gametocytes – luminescence, dose response (AID 1117278); format: functional, cell-based;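 also: gametocytes exposed to compound for 24 hours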
[5] = general cell-killing toxicity readout – plate reader, dry powder samples, cytotoxicity control for PAX8 inhibitor project, dose response (AID 743021); format: functional, cell-based
[6] = loss of viability in HepG2 cells – cell-based, CellTiter-Glo, cherry-picked, cytotoxicity control for Shn3 inhibitor project, dose response (AID 624134); format: functional
[7] = A549 cell cytotoxicity, dose response, cytotoxicity control, plate reader, cherry-pick, antagonist series (AID 743412); format: functional, cell-based
[8] = DRD fibroblast viability loss – cell-based, non-viral oncogenic, luminescence, dose response (AID 1934); format: functional; settings: Homo sapiens
[9] = biological target: Luciferin 4-monooxygenase (Photinus pyralis, UniProt P08659); experiment: inhibition of purified Photinus pyralis luciferase – biochemical, luminescence, dose response (AID 1891)
[10] = viability loss in human Jurkat cells – cell-based, luminescence, cytotoxicity control for P. falciparum gametocyte viability project, dose response (AID 1117277); format: functional;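 also: potency reflects loss of cellular ATP meaning fewer viable cells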
[11] = toxicity toward HepG2 liver cells – cell-based, plate reader, cherry-pick, antagonist series, cytotoxicity control, dose response (AID 743416); format: functional
Paired box protein Pax-8 = Paired box protein Pax-8 (Homo sapiens, UniProt Q06710); experiment: PAX8 transcriptional activity inhibition in RMG-I – RMG-I cells, luciferase, cherry-pick, dose response (AID 687027); format: functional, cell-based;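 also: luciferase reporter driven by Pax8 target thyroperoxidase promoter measured by SteadyGlo luminescence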
Sequence of Paired box protein Pax-8 (Q06710 whole entry): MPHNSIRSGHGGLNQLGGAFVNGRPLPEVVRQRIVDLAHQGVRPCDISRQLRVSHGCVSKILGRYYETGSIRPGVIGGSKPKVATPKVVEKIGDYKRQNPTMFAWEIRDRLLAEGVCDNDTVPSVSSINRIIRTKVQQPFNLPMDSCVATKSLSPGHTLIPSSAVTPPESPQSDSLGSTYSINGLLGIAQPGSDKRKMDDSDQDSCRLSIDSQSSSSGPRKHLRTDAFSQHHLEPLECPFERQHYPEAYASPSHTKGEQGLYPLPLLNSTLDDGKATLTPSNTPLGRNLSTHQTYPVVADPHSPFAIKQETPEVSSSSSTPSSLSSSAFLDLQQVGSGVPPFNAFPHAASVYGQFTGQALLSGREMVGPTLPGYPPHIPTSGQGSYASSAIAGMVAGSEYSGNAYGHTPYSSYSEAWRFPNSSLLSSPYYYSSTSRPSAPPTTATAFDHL

BJ [12] = experiment: BJ-TERT fibroblast viability loss – cell-based, RAS-independent, luminescence, dose response (AID 1933); format: functional; settings: Homo sapiens
[13] = Luminescence Cell-Based Dose Confirmation HTS to Identify Inhibitors of Platelet Dense Granule Release. [Related pubchem assays: 1663 (Primary HTS), 1678 (Summary of Project)]; format: functional
BJ [14] = experiment: growth inhibition of engineered Ras-driven BJ cells – cell-based, alamar blue fluorescence, cherrypicked samples, dose response (AID 2631); format: functional; settings: Homo sapiens;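 also: confirmatory dose-response assay in RAS-dependent BJ fibroblasts engineered with TERT, LT and ST, with cytotoxicity read by fluorescence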
[15] = blockers of bursicon-stimulated LGR2 cAMP reporter – cell-based, HEK293, CRE-luciferase reporter, cherry pick, set 2, dose response (AID 743343); format: functional;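 also: transfected cells were stimulated with diluted bursicon conditioned medium after compound addition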
BJ [16] = experiment: cells; format: functional, cell-based; settings: Homo sapiens
BJ [17] = experiment: BJ-TERT-LT-ST fibroblast viability loss – cell-based, RAS-independent, luminescence, dose response (AID 1935); format: functional; settings: Homo sapiens;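 also: BJ fibroblasts immortalized with TERT plus LT and ST oncogenes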
[18] = viability loss in HEK293 cells – cell-based, plate reader, cherry-picked samples, cytotoxicity control, dose response (AID 743446); format: functional
[19] = blockade of melanocortin 4 receptor signaling – cell-based, plate reader, cherry pick, counter-screen for LGR2 antagonist project, dose response (AID 743444); format: functional;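 also: transfected HEK 293 cells stimulated with alpha-MSH peptide; potency of inhibitors of the alpha-MSH evoked signal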
Cytochrome P450 3A4 = Cytochrome P450 3A4 (Homo sapiens, UniProt P08684);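 also: CYP3A4 tested as one member of a cytochrome P450 panel screen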
Sequence of Cytochrome P450 3A4 (P08684 whole entry): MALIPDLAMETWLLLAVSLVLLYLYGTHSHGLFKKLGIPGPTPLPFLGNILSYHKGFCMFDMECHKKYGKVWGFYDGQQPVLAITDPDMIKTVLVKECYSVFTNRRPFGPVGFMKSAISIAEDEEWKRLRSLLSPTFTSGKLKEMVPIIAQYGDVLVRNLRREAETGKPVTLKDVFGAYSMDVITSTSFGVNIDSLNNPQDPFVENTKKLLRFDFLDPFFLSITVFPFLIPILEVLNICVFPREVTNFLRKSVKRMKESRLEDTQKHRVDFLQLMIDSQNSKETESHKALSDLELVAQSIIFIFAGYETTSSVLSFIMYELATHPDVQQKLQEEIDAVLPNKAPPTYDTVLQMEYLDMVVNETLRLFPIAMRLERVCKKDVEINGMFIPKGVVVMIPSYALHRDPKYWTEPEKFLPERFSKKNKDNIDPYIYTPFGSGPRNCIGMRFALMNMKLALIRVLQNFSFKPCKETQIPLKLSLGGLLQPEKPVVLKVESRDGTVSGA

Cytochrome P450 2C19 = Cytochrome P450 2C19 (Homo sapiens, UniProt P33261); experiment: Cytochrome panel assay with activity outcomes. Panel member name: p450-cyp2c19 Compounds with AC50 equal or less than 10 uM are considered active; format: functional; settings: read-out: AC50
Sequence of Cytochrome P450 2C19 (P33261 whole entry): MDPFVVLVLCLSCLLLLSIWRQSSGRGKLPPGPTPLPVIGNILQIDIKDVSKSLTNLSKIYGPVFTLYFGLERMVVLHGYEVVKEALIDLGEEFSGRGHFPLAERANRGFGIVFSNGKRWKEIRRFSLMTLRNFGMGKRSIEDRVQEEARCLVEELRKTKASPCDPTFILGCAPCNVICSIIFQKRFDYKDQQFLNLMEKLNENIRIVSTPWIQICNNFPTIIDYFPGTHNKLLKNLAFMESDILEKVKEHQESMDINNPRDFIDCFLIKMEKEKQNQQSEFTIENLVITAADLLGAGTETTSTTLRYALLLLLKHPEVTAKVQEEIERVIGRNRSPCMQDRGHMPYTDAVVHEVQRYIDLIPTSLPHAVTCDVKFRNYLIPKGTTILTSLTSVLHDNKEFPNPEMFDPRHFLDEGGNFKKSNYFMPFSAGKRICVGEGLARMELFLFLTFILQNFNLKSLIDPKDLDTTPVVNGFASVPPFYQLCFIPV

Streptokinase A = biological target: T1, Streptokinase A (Streptococcus pyogenes serotype M1, UniProt P10520); experiment: viability-normalized secreted streptokinase activity reduction – plasminogen activation absorbance, OD405, dose response (AID 1914); format: functional, Streptococcus pyogenes M1 GAS;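 also: secreted streptokinase activity via plasminogen activation per viability signal from cell pellet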
T1 sequence (P10520 whole entry): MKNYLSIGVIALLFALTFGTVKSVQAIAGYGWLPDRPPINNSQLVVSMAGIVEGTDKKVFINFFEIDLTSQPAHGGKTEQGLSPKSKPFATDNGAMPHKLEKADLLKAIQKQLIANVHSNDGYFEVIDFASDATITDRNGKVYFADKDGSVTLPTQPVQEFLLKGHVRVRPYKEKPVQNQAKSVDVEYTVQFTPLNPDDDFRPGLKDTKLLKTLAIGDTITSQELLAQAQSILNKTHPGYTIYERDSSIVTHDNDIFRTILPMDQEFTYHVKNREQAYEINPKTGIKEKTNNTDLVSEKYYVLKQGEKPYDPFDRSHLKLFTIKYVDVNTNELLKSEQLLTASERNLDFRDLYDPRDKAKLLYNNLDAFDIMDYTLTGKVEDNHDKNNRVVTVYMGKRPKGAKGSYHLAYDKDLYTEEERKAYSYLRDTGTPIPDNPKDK

[20] = system: Streptococcus sp. 'group A'; experiment: Streptococcus pyogenes SK(-)GAS viability under kanamycin – luminescence, BacTiterGlo, confirmation, counter-screen for streptokinase expression inhibitor project, dose response (AID 1900); format: functional, organism-based
[21] = biological target: Voltage-gated inwardly rectifying potassium channel KCNH2 (Homo sapiens, UniProt Q12809); experiment: concentration-dependent hERG rescue from blockers – cell-based, thallium flux, dose response (AID 2121); format: ADME
[22] = biological target: G-protein coupled receptor 55 (Homo sapiens, UniProt Q9Y2T6); experiment: inhibition of LPI-stimulated GPR55 beta-arrestin translocation – imaging, U2OS, beta-arrestin-GFP, LPI agonist, primary screen (AID 2013); format: functional;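 also: antagonist potency measured as reduced agonist-driven arrestin aggregation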
Sequence of G-protein coupled receptor 55 (Q9Y2T6 whole entry): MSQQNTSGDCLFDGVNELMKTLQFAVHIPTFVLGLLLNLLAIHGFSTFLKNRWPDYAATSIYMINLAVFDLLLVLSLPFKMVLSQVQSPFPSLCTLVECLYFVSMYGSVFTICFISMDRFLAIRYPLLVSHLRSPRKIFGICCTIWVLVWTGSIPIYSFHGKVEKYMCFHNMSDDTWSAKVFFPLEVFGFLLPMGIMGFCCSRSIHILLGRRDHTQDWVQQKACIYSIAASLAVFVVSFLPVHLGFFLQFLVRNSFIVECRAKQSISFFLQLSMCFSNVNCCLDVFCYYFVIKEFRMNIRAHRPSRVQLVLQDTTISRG

Cytochrome P450 1A2 = biological target: T2, Cytochrome P450 1A2 (Homo sapiens, UniProt P05177);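 also: PubChem cytochrome P450 panel assay, CYP1A2 panel member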
T2 sequence (P05177 whole entry): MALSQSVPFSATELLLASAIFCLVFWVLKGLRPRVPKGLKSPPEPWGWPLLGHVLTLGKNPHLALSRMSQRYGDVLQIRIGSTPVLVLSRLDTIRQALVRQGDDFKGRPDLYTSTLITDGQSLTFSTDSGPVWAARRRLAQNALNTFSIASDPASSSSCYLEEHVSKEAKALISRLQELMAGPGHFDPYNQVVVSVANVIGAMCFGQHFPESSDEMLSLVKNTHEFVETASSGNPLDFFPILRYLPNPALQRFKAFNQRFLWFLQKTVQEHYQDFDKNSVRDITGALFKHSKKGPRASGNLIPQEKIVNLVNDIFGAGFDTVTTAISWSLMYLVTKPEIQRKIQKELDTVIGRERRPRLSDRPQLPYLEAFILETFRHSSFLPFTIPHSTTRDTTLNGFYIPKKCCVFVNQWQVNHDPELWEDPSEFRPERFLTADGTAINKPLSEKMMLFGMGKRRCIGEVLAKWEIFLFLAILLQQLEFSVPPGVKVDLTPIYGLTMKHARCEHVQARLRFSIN

Streptococcus = experiment: GAS UMAA2166 growth inhibition – luminescence, BacTiterGlo, counter-screen for streptokinase expression inhibitor project, dose response (AID 1915); format: functional, organism-based;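 also: potency for reduction of bacterial viability or growth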
[23] = biological target: Heat shock protein HSP 90-alpha (Homo sapiens, UniProt P07900); experiment: Luminescence-based dose response biochemical high throughput screening assay for inhibitors of the Heat Shock Protein 90 (HSP90). [Related pubchem assays: 1831 (Summary AID.), 1846 (Confirmation screen.), 1789 (Primary screen.)]
cells [24] = format: functional
cells [25] = format: functional, cell-based
Fatty acid synthase [26] = biological target: T3, Fatty acid synthase (Homo sapiens, UniProt P49327); experiment: inhibition of human FAS-TE enzyme activity – biochemical, endpoint fluorescence intensity, uHTS hits, dose response (AID 624327); format: functional;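 also: fluorescence from hydrolysis of an O-methyl fluorescein acyl ester substrate by the enzyme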
T3 sequence (P49327 whole entry): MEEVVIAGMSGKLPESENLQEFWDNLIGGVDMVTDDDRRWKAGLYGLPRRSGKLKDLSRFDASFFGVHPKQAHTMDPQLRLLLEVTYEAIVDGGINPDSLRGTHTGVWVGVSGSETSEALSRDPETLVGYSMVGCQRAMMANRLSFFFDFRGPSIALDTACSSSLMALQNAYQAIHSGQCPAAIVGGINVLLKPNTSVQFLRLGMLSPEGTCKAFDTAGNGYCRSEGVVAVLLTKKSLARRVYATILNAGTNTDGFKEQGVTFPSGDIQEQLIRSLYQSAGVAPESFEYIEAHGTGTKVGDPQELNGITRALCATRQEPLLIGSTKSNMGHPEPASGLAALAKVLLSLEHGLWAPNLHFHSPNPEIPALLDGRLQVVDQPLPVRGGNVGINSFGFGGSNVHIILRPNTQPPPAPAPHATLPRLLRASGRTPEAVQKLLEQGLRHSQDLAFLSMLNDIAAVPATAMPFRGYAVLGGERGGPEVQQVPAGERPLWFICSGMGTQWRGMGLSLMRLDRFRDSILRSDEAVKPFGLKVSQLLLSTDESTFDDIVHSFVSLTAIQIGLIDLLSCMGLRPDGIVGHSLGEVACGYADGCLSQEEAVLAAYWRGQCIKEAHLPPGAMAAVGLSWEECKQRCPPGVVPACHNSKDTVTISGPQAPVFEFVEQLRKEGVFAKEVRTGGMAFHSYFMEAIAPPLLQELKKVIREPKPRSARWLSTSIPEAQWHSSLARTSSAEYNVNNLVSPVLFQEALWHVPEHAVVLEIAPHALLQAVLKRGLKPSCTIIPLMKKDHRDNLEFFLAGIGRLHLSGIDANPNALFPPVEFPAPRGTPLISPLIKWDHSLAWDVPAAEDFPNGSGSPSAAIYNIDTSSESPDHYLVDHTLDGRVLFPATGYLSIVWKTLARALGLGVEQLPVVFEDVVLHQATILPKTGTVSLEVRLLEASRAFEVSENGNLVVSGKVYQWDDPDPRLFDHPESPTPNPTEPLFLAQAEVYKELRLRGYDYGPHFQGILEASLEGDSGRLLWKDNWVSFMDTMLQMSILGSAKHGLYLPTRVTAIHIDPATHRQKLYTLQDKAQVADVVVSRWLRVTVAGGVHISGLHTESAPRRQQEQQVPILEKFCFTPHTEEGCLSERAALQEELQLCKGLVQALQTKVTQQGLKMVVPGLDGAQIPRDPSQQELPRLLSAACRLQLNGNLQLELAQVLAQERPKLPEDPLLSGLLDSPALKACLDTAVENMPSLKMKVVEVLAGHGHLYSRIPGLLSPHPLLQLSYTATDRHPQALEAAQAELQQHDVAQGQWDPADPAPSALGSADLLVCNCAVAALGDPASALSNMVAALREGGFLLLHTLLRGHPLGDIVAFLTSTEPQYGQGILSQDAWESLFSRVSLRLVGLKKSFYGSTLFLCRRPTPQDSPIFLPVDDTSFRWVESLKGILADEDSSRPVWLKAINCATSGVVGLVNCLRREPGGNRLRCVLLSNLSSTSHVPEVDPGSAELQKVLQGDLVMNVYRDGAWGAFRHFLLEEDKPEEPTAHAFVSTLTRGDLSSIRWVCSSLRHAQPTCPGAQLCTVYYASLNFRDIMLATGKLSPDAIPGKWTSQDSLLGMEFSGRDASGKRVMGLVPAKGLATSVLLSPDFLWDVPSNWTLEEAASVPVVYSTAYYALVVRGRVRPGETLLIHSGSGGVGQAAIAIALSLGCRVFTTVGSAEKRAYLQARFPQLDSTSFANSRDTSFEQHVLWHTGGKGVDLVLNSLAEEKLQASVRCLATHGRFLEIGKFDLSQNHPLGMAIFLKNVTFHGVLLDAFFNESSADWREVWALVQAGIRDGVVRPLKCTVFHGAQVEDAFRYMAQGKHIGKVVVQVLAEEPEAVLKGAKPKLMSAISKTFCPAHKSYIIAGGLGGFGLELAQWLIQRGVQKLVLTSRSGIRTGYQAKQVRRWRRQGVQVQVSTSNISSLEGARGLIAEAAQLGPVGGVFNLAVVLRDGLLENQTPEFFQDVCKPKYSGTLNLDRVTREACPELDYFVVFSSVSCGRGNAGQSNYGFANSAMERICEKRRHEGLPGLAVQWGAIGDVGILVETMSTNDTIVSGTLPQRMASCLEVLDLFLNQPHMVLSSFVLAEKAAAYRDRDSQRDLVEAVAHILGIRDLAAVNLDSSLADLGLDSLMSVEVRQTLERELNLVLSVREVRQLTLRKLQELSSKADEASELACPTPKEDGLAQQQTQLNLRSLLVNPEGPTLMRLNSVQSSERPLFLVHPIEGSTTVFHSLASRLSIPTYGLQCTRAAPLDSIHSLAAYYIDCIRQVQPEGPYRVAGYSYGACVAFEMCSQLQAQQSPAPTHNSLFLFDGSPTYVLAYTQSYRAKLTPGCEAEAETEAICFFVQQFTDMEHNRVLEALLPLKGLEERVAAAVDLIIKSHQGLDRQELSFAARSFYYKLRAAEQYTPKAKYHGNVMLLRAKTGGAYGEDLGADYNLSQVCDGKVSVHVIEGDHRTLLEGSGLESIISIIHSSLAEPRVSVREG

Fatty acid synthase [27] = biological target: T3, Fatty acid synthase; experiment: inhibition of human FAS-TE enzyme activity – biochemical, kinetic fluorescence intensity, dose response (AID 624326); format: functional;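 also: rate of fluorescence rise from hydrolysis of a fluorogenic O-methyl fluorescein ester substrate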
cells [28] = format: functional, cell-based; remark: listed apart in the source
[29] = biological target: E3 ubiquitin-protein ligase Mdm2 (Homo sapiens, UniProt Q00987); experiment: MDM2-luc reporter signal enhancers, multi-concentration potency testing, MDM2 ubiquitin-protein ligase inhibitor program, whole-cell format, luminescence detection, 384-well microplate (AID 1394); format: functional;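 also: MDM2 E3 inhibitors raise luminescence so EC50 is for signal enhancement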
Sequence of E3 ubiquitin-protein ligase Mdm2 (Q00987 whole entry): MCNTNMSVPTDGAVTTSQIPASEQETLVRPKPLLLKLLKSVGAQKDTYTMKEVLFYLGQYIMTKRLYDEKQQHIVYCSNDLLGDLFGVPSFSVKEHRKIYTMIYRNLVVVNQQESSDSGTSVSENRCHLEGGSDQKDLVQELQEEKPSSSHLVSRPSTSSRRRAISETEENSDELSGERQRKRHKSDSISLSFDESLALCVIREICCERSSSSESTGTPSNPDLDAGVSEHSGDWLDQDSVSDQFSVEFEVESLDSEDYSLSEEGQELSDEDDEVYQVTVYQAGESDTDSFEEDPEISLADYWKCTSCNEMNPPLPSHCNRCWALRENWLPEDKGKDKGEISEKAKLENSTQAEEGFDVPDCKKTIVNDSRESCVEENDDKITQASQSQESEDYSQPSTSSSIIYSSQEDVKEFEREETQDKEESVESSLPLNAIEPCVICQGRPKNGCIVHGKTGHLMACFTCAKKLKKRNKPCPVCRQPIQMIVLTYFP

For CS(=O)(=O)c1ccc(Sc2nc3ccccc3s2)c([N+](=O)[O-])c1, the AC50 [1] was 9.73 µM (active), the CC50 (Vero) was 18.3 µM (active) and the AC50 [2] was 31.2 µM (active). The AC50 (HEK293) was 4.87 µM (active) and the IC50 [3] was 79.5 µM (inactive).
For O=c1c2ccccc2cnn1-c1nc2ccccc2[nH]1, the IC50 [4] was 15.2 µM (inactive), the AC50 [5] was 3.39 µM (active) and the AC50 [6] was 12.1 µM (active). The AC50 [7] was 2.6 µM (active), the EC50 [8] was 5.22 µM (active) and the EC50 [9] was 1.16 µM (active). The AC50 [1] was 1.33 µM (active), the IC50 [10] was 3.98 µM (active) and the AC50 [11] was 8.61 µM (active). For the same compound, the AC50 (Paired box protein Pax-8) was 1.65 µM (active), the EC50 (BJ [12]) was 5.15 µM (active) and the EC50 [13] was 0.144 µM (active). The EC50 (BJ [14]) was > 133 µM (inactive), the AC50 [15] was 0.275 µM (active) and the AC50 [2] was 27.2 µM (active). For the same compound, the EC50 (BJ [16]) was 4.94 µM (active), the EC50 (BJ [17]) was 4.79 µM (active) and the AC50 [18] was 2.23 µM (active). The AC50 [19] was 0.288 µM (active).
With COc1ccc(/C=C2/SC(N/N=C3\CC4CCC3(C)C4(C)C)=NC2=O)cc1 (centres undefined) the AC50 (Cytochrome P450 3A4) was 12.6 µM (inconclusive), the AC50 (Cytochrome P450 2C19) was 20 µM (inconclusive) and the EC50 (Streptokinase A) was > 150 µM (not active). For the same compound, the EC50 [20] was 3.92 µM (active), the EC50 [21] was 0.22 µM (active) and the IC50 [22] was 6 µM (active). The AC50 (Cytochrome P450 1A2) was 14.1 µM (inconclusive) and the EC50 (Streptococcus) was > 150 µM (not active).
For CCOC(=O)c1csc(COc2ccc(OC)cc2)n1, the IC50 [23] was 8.03 µM (active) and the IC50 (cells [24]) was 47.7 µM (active).
In the case of COCCn1/c(=N/C(=O)c2ccc(S(=O)(=O)N3CCCc4ccccc43)cc2)sc2cc(S(C)(=O)=O)ccc21, the EC50 (cells [25]) is reported as 298 µM (active), the IC50 (Fatty acid synthase [26]) is reported as 45.9 µM (inactive) and the IC50 (Fatty acid synthase [27]) is reported as 64.5 µM (inactive). For the same compound, the EC50 (cells [28]) was > 350 µM (not active) and the EC50 [29] was 1.03 µM (not active).

Reference: ChEMBL document CHEMBL1201862, “PubChem BioAssay data set” (2004)
